Measurements taken from patent US5010005A, “Bio-oxidation of high alcohols in non-aqueous reaction media” (priority 1989, dated 1991).
≈ marks a conversion by molar mass, not a printed value. Read-outs that look alike come from different tables or passages of the source.

Columns and labels:
[1] = Partitioning of benzyl alcohol and benzaldehyde between 0.1 M phosphate buffer and solvent; assay type: physicochemical
Protocol: The partitioning of benzyl alcohol and benzaldehyde between 0.1 M phosphate buffer and each solvent used were measured as follows: benzyl alcohol (10 g/L) and benzaldehyde (10 g/L) were dissolved in each of the solvents of interest. Ten millilitres of each solvent were then dispensed into a test tube containing 10 ml of 0.1 M phosphate buffer (pH 8). The tubes were capped, vortexed, and the mixture was allowed to equilibrate for 1 hr at 30° C. Both phases were then assayed for benzaldehyde and benzyl alcohol as described above. […]

alcohol oxidase = target: T1, alcohol oxidase (Komagataella phaffii, UniProt P04842); assay: Inhibition of alcohol oxidase by benzaldehyde; assay type: biochemical, Pichia pastoris
T1 construct: purchased Provesta Corp. (Bartlesville, Oklahoma)
T1 sequence (P04842 2-663 limits assumed): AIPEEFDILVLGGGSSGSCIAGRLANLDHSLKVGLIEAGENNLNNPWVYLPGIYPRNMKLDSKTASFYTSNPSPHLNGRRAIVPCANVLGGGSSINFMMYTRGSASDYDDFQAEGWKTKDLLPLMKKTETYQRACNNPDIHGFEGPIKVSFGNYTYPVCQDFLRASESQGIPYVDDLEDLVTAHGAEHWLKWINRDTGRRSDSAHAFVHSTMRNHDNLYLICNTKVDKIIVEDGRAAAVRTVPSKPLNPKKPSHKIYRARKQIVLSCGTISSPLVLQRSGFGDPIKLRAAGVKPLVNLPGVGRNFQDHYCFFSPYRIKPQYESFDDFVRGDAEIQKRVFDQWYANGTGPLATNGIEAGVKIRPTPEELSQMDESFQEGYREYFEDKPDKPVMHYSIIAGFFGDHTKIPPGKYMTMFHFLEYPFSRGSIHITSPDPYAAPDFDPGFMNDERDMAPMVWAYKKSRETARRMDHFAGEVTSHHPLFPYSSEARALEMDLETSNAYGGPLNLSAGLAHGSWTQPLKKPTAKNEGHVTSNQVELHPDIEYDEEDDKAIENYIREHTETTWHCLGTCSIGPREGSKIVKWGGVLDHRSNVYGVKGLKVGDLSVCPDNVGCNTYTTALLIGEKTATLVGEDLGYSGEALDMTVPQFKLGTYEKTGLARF
Description: Similar potent inhibition of yeast alcohol dehydrogenase by aliphatic and aromatic aldehydes including benzaldehyde has been reported (W.R. Bowen et al, J. Chem. Tech. Biotechnol. 36: 191-196, 1986). In two phase systems, the degree to which alcohol oxidase is inhibited by benzaldehyde is controlled by the concentration of the inhibitor, the concentration of the enzyme, the solvent chosen as a reaction fluid, and on the volumetric ratio of the two phases present. The effect of the first two factors is obvious, however the latter two parameters play an important role in determining the effective concentration of the inhibitor; that concentration to which the biocatalyst is exposed, potentially causing inhibition. Benzaldehyde partitions differently between the two phases depending on the solvent chosen. For example, using toluene as an extractant benzaldehyde was efficiently stripped from the aqueous phase (Table 2) and was, therefore, less able to inhibit alcohol oxidase. It is possible that this would result in improved yields over extended reaction times, despite the sacrifice in terms of initial reaction rate.

Solubility in water = assay type: physicochemical

**Q.** Which results are given for O=Cc1ccccc1 [benzaldehyde]?
**A.** Partition Coefficient (Corg /Caq) ([1]; Ether / 0.1 M phosphate buffer pH 8, 30° C.): 69.4; Partition Coefficient (Corg /Caq) ([1]; Ethylacetate / 0.1 M phosphate buffer pH 8, 30° C.): 62.0; Partition Coefficient (Corg /Caq) ([1]; Hexane / 0.1 M phosphate buffer pH 8, 30° C.): 15.4; Partition Coefficient (Corg /Caq) ([1]; Toluene / 0.1 M phosphate buffer pH 8, 30° C.): 100; Inhibition of alcohol oxidase (alcohol oxidase): very strongly inhibited; Inhibition of alcohol oxidase (alcohol oxidase; listed as Benzaldehyde): extremely potent inhibitor; solubility (Solubility in water): ~3000 µg/mL (≈ 28.3 mM)
